Earlier results as cited in patent US20240062912A1, “METHODS FOR DETERMINING LIVER FUNCTION COMPRISING A MULTI-COMPARTMENTAL MODEL” (HepQuant, LLC, priority 2022, published 2024).

Settings: cited from earlier work
[1] = healthy controls, previous studies

## [2H]C1([2H])C[C@@]2(C)[C@H](C[C@@H](O)[C@@H]3[C@@H]2C[C@H](O)[C@]2(C)[C@@H]([C@H](C)CCC(=O)O)CC[C@@H]32)C([2H])([2H])[C@@H]1O [d4-CA, cholic-acid-2,2,4,4-d4]
Diseased liver
  SHUNT: 30-90%
  STAT: 0.6 to 5 µM
  portal HFR (FLOW): 20 to 2 mL/min/kg
[1]
  average HFR (FLOW): 30 mL/min/kg
  average SHUNT: ~20%
  average STAT value: ~0.4
